# In the OPERA property sets (Mansouri et al. 2018):
# Details: not given
Compound,boiling point,log10 vapour pressure (mmHg),melting point,ready biodegradability,log10 Henry constant (atm·m³/mol),log10 Koc (L/kg),log10 Koa
CC[C@@H]1CCC[C@H]1C,125 °C,1.3,-106 °C,,,,
c1ccc(-c2nc3ccccc3[nH]2)cc1,,,293 °C,,,,
OC1CCC1,124 °C,,,,,,
CO[Si](OC)(OC)OC,121 °C,,,,,,
FC(F)(Br)C(F)(Cl)Br (stereo unspecified),93 °C,,,,,,
ClCCOC(c1ccccc1)c1ccccc1,,,,not readily biodegradable,,,
CC/C=C\C/C=C\C/C=C\CCCCCCCC(=O)O,,-6.27,-16.5 °C,readily biodegradable,,,
CCCCC(C)Br (stereo unspecified),144 °C,0.86,,,,,
O=C1C=CC(=O)C(c2ccccc2)=C1,,,114 °C,,,,
FC(F)(F)C(Cl)Br (stereo unspecified),50.2 °C,2.48,-118 °C,,-1.69,,
CC/C=C\CCO,,,,readily biodegradable,,,
c1ccc(OP(Oc2ccccc2)Oc2ccccc2)cc1,360 °C,,25 °C,,,,
O=C[C@@H]1C[C@@H]2[C@@H]3[C@H]1[C@@]1(Cl)C(Cl)(Cl)[C@]3(Cl)[C@@]3(Cl)[C@@H]2[C@]31Cl,,-6.7,,,,,
CCCCCCCCCCCCCCCCCCCCCCCCCCCCCCCCCCCCCCCC,,,82 °C,readily biodegradable,,,
FC(F)CBr,57.3 °C,,-75 °C,,,,
Brc1cccc(Oc2ccc(Br)c(Br)c2Br)c1,,-5.66,,,,,
Nc1c(Br)cccc1Br,263 °C,,87.5 °C,,,,
CC(=O)c1cc(C)c(C)cc1C,246 °C,,10.5 °C,,,,
CCCCCCCCCCCCCCCCCC(=O)Cl,,,23 °C,,,,
Cn1ccnc1,196 °C,,-6 °C,,,,
O=C(O)C(F)(F)C(F)(F)C(=O)O,,,119 °C,,,,
Cc1cccc2cc3ccccc3cc12,,,85.5 °C,,,,
CC(=O)OCCc1ccccc1,233 °C,-1.5,-31.1 °C,,,1.89,
CCc1ccc(C(C)=O)cc1,,-0.0389,-20.6 °C,,,,
O=C1C[C@H]2CCCC[C@H]2C1,222 °C,,-1 °C,,,,
c1cnc(N2CCN(Cc3ccc4c(c3)OCO4)CC2)nc1,,,98 °C,,,,

Compound,boiling point,log10 vapour pressure (mmHg),melting point,ready biodegradability,log10 Henry constant (atm·m³/mol),log10 Koc (L/kg),log10 Koa
CN(C)C(C)(C)CO,160 °C,,19 °C,,,,
Cc1c(C)c(Br)c(Br)c(Br)c1Br,374 °C,,262 °C,,,,
CCCCC(CC)COP(=O)(Oc1ccccc1)Oc1ccccc1 (stereo unspecified),375 °C,-4.3,-54 °C,not readily biodegradable,-4.27,,
CCCC(Cn1cncn1)c1ccc(Cl)cc1Cl (stereo unspecified),,-5.56,58.5 °C,,,,
O=C(O)Cc1ccccc1Oc1ccc(Cl)cc1Cl,,,112 °C,,,,
O=C(O)C1C2CCC(O2)C1C(=O)O (stereo unspecified),,-9.8,144 °C,,,2.09,
Nc1ccccc1CO,273 °C,,83.5 °C,,,,
CC(=O)C1C(=O)C=C(C)OC1=O (stereo unspecified),270 °C,-2.9,109 °C,readily biodegradable,,,
CC(N)CCN (stereo unspecified),140 °C,,,,,,
CC1CC(OC(=O)C(O)c2ccccc2)CC(C)(C)N1C (stereo unspecified),,,113 °C,,,,
C#CC1(O)CCCCC1,174 °C,,31.5 °C,,,,
Cc1ncc(CO)c(CO)c1O.Cl,,,207 °C,,,,
O=C(O)CCCc1c[nH]c2ccccc12,,,124 °C,,,,
CNc1ccccc1,196 °C,-0.344,-57 °C,not readily biodegradable,-5.05,2.28,
Cc1ccc(C)[nH]1,171 °C,-0.0942,7.7 °C,,,,
CCCCCC(=NO)C(C)=O,,,59 °C,,,,
CNc1cccc2ccccc12,294 °C,,174 °C,,,,
Cc1ccc2cccc([N+](=O)[O-])c2n1,,,140 °C,,,,
CC(C)COC(=O)C(C)Oc1ccc(Oc2ccc(Cl)cc2)cc1 (stereo unspecified),,,39.5 °C,,,,
CC=C(Cl)C=O,148 °C,,,,,,
CC(C)C(=O)OC1CCCCC1,204 °C,,,,,,
N#Cc1cnc2ccccc2c1,,,109 °C,,,,
C[C@@H]1CC2=CC(=O)CC[C@]2(C)[C@H]2CC[C@@]3(C)[C@@H](CC[C@]3(C)O)[C@H]12,,,146 °C,,,,
FC(F)(F)c1cccc(Cl)c1,138 °C,,-56 °C,not readily biodegradable,,,
CCC(C)CC(C)C(C)C (stereo unspecified),161 °C,,,,,,
O=C(O)c1ccc([N+](=O)[O-])c(O)c1,,,230 °C,,,,

Compound,boiling point,log10 vapour pressure (mmHg),melting point,ready biodegradability,log10 Henry constant (atm·m³/mol),log10 Koc (L/kg),log10 Koa
Cc1cc(C)cc(O)c1,222 °C,-1.39,63.6 °C,,-6.21,2.83,
CCN1C[C@]2(COC)CCC(O)[C@]34C1C(O)([C@@H](OC)[C@H]23)C1(O)C[C@H](OC)[C@H]2C[C@@H]4[C@@H]1[C@H]2OC (stereo partly specified),,,214 °C,,,,
CCCCCCCC(=O)N(CCO)CCO,,,,readily biodegradable,,,
CCCCCOC(=O)CCC,186 °C,,-73.2 °C,,,,
O=C(O)Cc1cccc(O)c1,,,132 °C,,,,
O=C1CC(C(=O)O)=CO1,,,164 °C,,,,
CC(=O)c1ccc(F)cc1,196 °C,,,,,,
CCOC(=O)CC(=O)C(C)C,173 °C,,-9 °C,,,,
CCC(C)(C)C(C)C(C)C (stereo unspecified),162 °C,,,,,,
CC(=O)c1ccc2ccccc2c1O,,,101 °C,,,,
C[C@]12C=CC(=O)C=C1CC[C@@H]1[C@@H]2CC[C@]2(C)OC(=O)CC[C@@H]12,,,218 °C,,,,
COc1ccc(COC(C)=O)cc1,270 °C,,84 °C,,,,
CNCC(O)c1ccc(O)cc1 (stereo unspecified),,,184 °C,,,,
CN(C)N,63.9 °C,2.21,-58 °C,not readily biodegradable,,,
O=C(Cn1c(=O)sc2ccc(Cl)cc21)N1CCN(CCO)CC1,,,160 °C,,,,
O=C1NCCN1,,,131 °C,,,,
Clc1ccc(-c2cc(Cl)c(Cl)c(Cl)c2)cc1Cl,,,,,,,10.3
COP(=S)(OC)Oc1ccc([N+](=O)[O-])cc1,,-5.46,35.5 °C,,-7,3,
CCOc1cccc(-c2ccccc2)c1,305 °C,,35 °C,,,,
CCC(C)c1cc([N+](=O)[O-])cc([N+](=O)[O-])c1OC(=O)C=C(C)C (stereo unspecified),,-6.5,70 °C,,,,
Cc1cnc(C)c(C)n1,172 °C,,,,,,
CCCC(CC)(CC)CC,166 °C,,,,,,
CC=C(C)CC,69 °C,2.2,-137 °C,,,,
O=C[C@H](O)CO,,,145 °C,,,,
Nc1c(Cl)c(F)nc(OCC(=O)O)c1Cl,,-10.5,232 °C,,,,
CCCCCCCC/C=C\CCCCCCCCCCCC(=O)O,,,33.5 °C,,,,

Compound,boiling point,log10 vapour pressure (mmHg),melting point,ready biodegradability,log10 Henry constant (atm·m³/mol),log10 Koc (L/kg),log10 Koa
CC(CCc1ccccc1)NC(C)C(O)c1cc(I)c(O)c(I)c1 (stereo unspecified),,,212 °C,,,,
CC(C)NCC(O)COc1ccc(CCOCC2CC2)cc1 (stereo unspecified),,,71 °C,,,,
O=C(O)c1ccc([N+](=O)[O-])cc1[N+](=O)[O-],,,182 °C,,,,
C[C@@H](CN1CC(=O)NC(=O)C1)N1CC(=O)NC(=O)C1,,,238 °C,,,,
c1ccc2c(c1)ccc1c2ccc2c3ccccc3ccc21,519 °C,,368 °C,,,,
CCOC(=O)c1ccc(N)cc1,310 °C,,92 °C,,,,
CCCCCCCCCCCCF,,-0.682,,,,,
O=C1CCC(=O)N1Cl,216 °C,,150 °C,,,,
CP(=O)(O)CCC(N)C(=O)[O-].[NH4+] (stereo unspecified),,,215 °C,,,,
Nc1cccc2cccnc12,,,70 °C,,,,
Cc1cc(Cl)ccc1OC(C)C(=O)O (stereo unspecified),298 °C,,94.5 °C,,,1.3,
CC(=O)NC1C(O)OC(CO)C(O)C1O (stereo unspecified),,,,readily biodegradable,,,
BrC1CCC(Br)C(Br)CCC1Br (stereo unspecified),,,,not readily biodegradable,,,
CCCCN=C=S,168 °C,,,,,,
O=[N+]([O-])c1cccc2cccnc12,,,90 °C,,,,
CCCCCc1cc(O)c2c(c1)OC(C)(C)c1ccc(C)cc1-2,,,77 °C,readily biodegradable,,,
CC1=NCCS1,145 °C,,-101 °C,,,,
CCC1Nc2cc(Cl)c(S(N)(=O)=O)cc2S(=O)(=O)N1 (stereo unspecified),,,270 °C,,,,
C=CCc1cccc(C)c1O,232 °C,,,,,,
NC1CCC1,82 °C,,,,,,
CCCc1ccc(N)cc1,225 °C,,,,,,
CC(C)Nc1nc(Cl)nc(NC(C)C)n1,,-6.88,213 °C,not readily biodegradable,,2.4,
Cc1ccc2cc(N(C)C)ccc2n1,319 °C,,101 °C,,,,
CCCCCCF,91.5 °C,1.76,-103 °C,,,,
CCCCCCCCCCCCCCCCCCCCO,372 °C,-7.34,66.1 °C,,,,12.1
CCC(C)(C)c1ccc(O)c(C(C)(C)CC)c1,,,25 °C,not readily biodegradable,,,

Compound,boiling point,log10 vapour pressure (mmHg),melting point,ready biodegradability,log10 Henry constant (atm·m³/mol),log10 Koc (L/kg),log10 Koa
O=C1CCCCC1,155 °C,0.636,-31 °C,readily biodegradable,-5.05,,
OCC(CO)(CO)CBr,,,76 °C,,,,
C=C(C)C(=O)OCC(F)(F)C(F)F,124 °C,,,,,,
NS(=O)(=O)c1ccc(CCCO)cc1,,,95.5 °C,,,,
Clc1cc(Cl)cc(-c2ccccc2Cl)c1,,,,,-3.7,,
C/C=C/CO,121 °C,,,,,,
Cc1ccc(Sc2ccc(C)cc2)cc1,,,57.3 °C,,,,
CCOP(=O)(N=C1SCCS1)OCC,,,41 °C,,,,
CC(=O)Cc1ccccc1,216 °C,,-15 °C,,,,
C=CCOC,44 °C,,,,,,
C=CCC1(CC(=C)Br)C(=O)NC(=O)NC1=O,,,168 °C,,,,
Nc1ccc(Cl)cc1C(=O)c1ccccc1,,,99 °C,,,,
BrC(Br)c1ccccc1OCC1CO1 (stereo unspecified),,,,not readily biodegradable,,,
NC(=O)Nc1cccc2ccccc12,,,220 °C,,,,
CC1(N)CCC(C(C)(C)N)CC1 (stereo unspecified),,,-45 °C,,,,
CCCCOCCOCCOCCO,278 °C,-2.6,-30 °C,,,,
COC(=O)CCC#N,211 °C,,,,,,
Cc1cc(NS(=O)(=O)c2ccc(N)cc2)sn1,,,192 °C,,,,
NC(=O)c1cc([N+](=O)[O-])cc([N+](=O)[O-])c1,,,184 °C,,,2.31,
Cc1c(N)cccc1Cl,245 °C,,1 °C,,,,
Cc1cccc(O)c1,202 °C,-0.959,11.8 °C,readily biodegradable,-6.07,,
C=CCCCCCCCCCCCCCCCCC,329 °C,-4.42,23 °C,,,,

# Same assay, conditions: fish
Compound,log10 BCF,log10 biotransformation half-life (days)
ClCCOC(c1ccccc1)c1ccccc1,2.51,-0.07
CCCCC(CC)COP(=O)(Oc1ccccc1)Oc1ccccc1 (stereo unspecified),2.49,-0.15
CCCC(Cn1cncn1)c1ccc(Cl)cc1Cl (stereo unspecified),,1.19
CNc1ccccc1,1,-0.88
FC(F)(F)c1cccc(Cl)c1,2.35,0.64
Clc1ccc(-c2cc(Cl)c(Cl)c(Cl)c2)cc1Cl,,2.4
COP(=S)(OC)Oc1ccc([N+](=O)[O-])cc1,1.93,0.55
